# Data reported in US20240100065A1, “METHODS FOR TREATING RECEPTOR-INTERACTING PROTEIN KINASE 1-MEDIATED DISEASES” (Genzyme Corporation, priority 2022, published 2024).
# Test: Safety and tolerability (TEAEs, PCSAs, laboratory tests) in phase 1 study Parts 1a, 1b, 2
# Assay type: in vivo, healthy adult participants (human)
# Conditions: for ALT increase: Part 1b 10 mg
# Procedure: This single ascending dose (SAD) study consisted of three parts: Part 1a, which is a phase 1, randomized, placebo-controlled, double-blind, sequential ascending single dose study; Part 1b, which is phase 1, open-label, sequential single dose study; and Part 2, which is an ascending 14-day repeated oral dose study.
# Part 1a evaluated 4 sequential ascending dose levels of Compound 1 under fasted conditions: 10 mg, 20 mg, 30 mg, and 40 mg, each dose per cohort. Participants were fasted overnight for at least 8 hours before the morning dose and 2 hours after dosing.
# Part 1b is an open-label study with two single dose levels of Compound 1, previously tested for safety/tolerability in SAD cohorts of Part 1a, were selected (10 mg and 40 mg) and sequentially administered under a fed condition, each dose per cohort. Participants were fasted overnight for at least 8 hours, and then fed with a light breakfast approximately 30 minutes before Compound 1 dosing. In both Part 1a and 1b, all participants received one single dose of treatment.
# Part 2 was a randomized, double-blind, placebo-controlled study that evaluated 14-day multiple ascending oral doses of Compound 1 once daily (OD) or twice daily (BID) regimen under fasted conditions: 10 mg QD, 20 mg QD, 15 mg BID, and 20 mg BID. Participants fasted overnight for at least 8 hours before the morning dose and 2 hours after dosing on Day 1 and Day 14. All other morning doses were administered after an overnight fast and approximately 30 minutes before a breakfast snack. Sentinel dosing approach was followed where two of ten participants in each cohort were dosed the first day (n=1, Compound; n=1, placebo) in advance of the full cohort. The remaining 8 participants from each cohort were randomized to receive either Compound or placebo (randomized 7:1) on the following days with at least 48-hour interval from dosing of the sentinel participants, allowing a safety evaluation at the predicted steady state.
# Safety and tolerability were assessed by physical examination, neurological examination, monitoring adverse events (AEs) and potentially clinically significant abnormalities (PCSAs) in clinical laboratory tests (hematology, clinical chemistry, and urinalysis), vital signs (body temperature, blood pressure and heart rate), and ECG parameters (heart rate, RR, PR, QRS, QT, QTcF, QTcB intervals) measured in the standard 12-lead ECG or ECGs extracted from 24-hour Holter ECG data.
# Safety population included all participants who received at least one dose of study intervention (Compound 1 or placebo). All safety assessments (AEs, laboratory parameters, vital signs) were based on the review of individual values and were summarized using descriptive statistics. Safety analysis was focused on treatment-emergent period, defined as the time from the first investigational medicinal product (IMP) administration up to the end of study visit (included). AEs were coded according to the Medical Dictionary for Regulatory Activities (MedDRA, version 23.1 in Part 1a and Part 1b; version 24 in Part 2). Severity was graded from Grade 1 to 4 according to the Food and Drug Administration (FDA) Guidance for Industry. Number (%) of participants experiencing TEAEs and potentially clinically significant abnormality (PCSAs) in clinical chemistry, vital signs, and ECGs were summarized by dose level group.
compound,measurement,setting,value
"CC(C)(C(=O)N1CCOc2c(C#N)cncc2C1)C(F)F [Compound 1, 4-(3,3-difluoro-2,2-dimethyl-propanoyl)-3,5-dihydro-2H-pyrido[3,4-f] [1,4]oxazepine-9-carbonitrile]","TEAE Eye disorders, participants",Part 1a single 40 mg fasted,0 n
same,"TEAE Fatigue, participants",Part 1a single 40 mg fasted,0 n
same,"TEAE General disorders and administration site conditions, participants",Part 1a single 40 mg fasted,1 n
same,"TEAE Headache, participants",Part 1a single 40 mg fasted,0 n
same,"TEAE Investigations, participants",Part 1a single 40 mg fasted,0 n
same,"TEAE Keratitis, participants",Part 1a single 40 mg fasted,0 n
same,"TEAE Medical device site dermatitis, participants",Part 1a single 40 mg fasted,0 n
same,"TEAE Musculoskeletal and connective tissue disorders, participants",Part 1a single 40 mg fasted,1 n
same,"TEAE Myalgia, participants",Part 1a single 40 mg fasted,1 (16.7) n
same,"TEAE Nervous system disorders, participants",Part 1a single 40 mg fasted,1 n
same,"TEAE Presyncope, participants",Part 1a single 40 mg fasted,0 n
same,"TEAE Skin and subcutaneous tissue disorders, participants",Part 1a single 40 mg fasted,1 n
same,"TEAE Skin irritation, participants",Part 1a single 40 mg fasted,0 n
same,"TEAE Tachycardia, participants",Part 1a single 40 mg fasted,0 n
same,"TEAE Thrombophlebitis, participants",Part 1a single 40 mg fasted,0 n
same,"TEAE Vascular disorders, participants",Part 1a single 40 mg fasted,0 n
same,"TEAE Ventricular extrasystoles, participants",Part 1a single 40 mg fasted,1 n
same,"TEAE Vessel puncture site hypoaesthesia, participants",Part 1a single 40 mg fasted,1 n
same,"TEAE Vessel puncture site pain, participants",Part 1a single 40 mg fasted,1 n
same,"PCSAs (hematology, clinical chemistry, vital signs, ECG), relevance","Part 1a, all Compound 1 groups",not clinically relevant
same,Participants with at least one TEAE,"Part 1a, all Compound 1 groups, out of 24",9 participants
same,SAEs or AESIs,"Part 1a, single 10-40 mg fasted",no SAEs or AESIs
same,ALT increase,"one participant, Day 2",1.5 fold ULN
same,ALT increase,"one participant, Day 7 (end-of-study visit)",2.4 fold ULN
same,Participants with at least one TEAE,"Part 1b overall, out of 12",10 participants
same,"Any Grade ≥3 TEAE, participants",Part 1b single 10 mg fed,0 n
same,"Any TEAE, participants",Part 1b single 10 mg fed,4 n
same,"Any treatment-emergent AESI, participants",Part 1b single 10 mg fed,1 n
same,"Any treatment-emergent SAE, participants",Part 1b single 10 mg fed,0 n
same,"TEAE Alanine aminotransferase increased, participants",Part 1b single 10 mg fed,1 n
same,"TEAE Back pain, participants",Part 1b single 10 mg fed,1 n
same,"TEAE Cerebrospinal fluid leakage, participants",Part 1b single 10 mg fed,1 n
same,"TEAE Coccydynia, participants",Part 1b single 10 mg fed,0 n
same,"TEAE Constipation, participants",Part 1b single 10 mg fed,0 n
same,"TEAE Dizziness, participants",Part 1b single 10 mg fed,0 n
same,"TEAE Gastrointestinal disorders, participants",Part 1b single 10 mg fed,1 n
same,"TEAE Headache, participants",Part 1b single 10 mg fed,3 n
same,"TEAE Investigations, participants",Part 1b single 10 mg fed,1 n
same,"TEAE Musculoskeletal and connective tissue disorders, participants",Part 1b single 10 mg fed,1 n
same,"TEAE Nausea, participants",Part 1b single 10 mg fed,1 n
same,"TEAE Nervous system disorders, participants",Part 1b single 10 mg fed,4 n
same,"TEAE Polyuria, participants",Part 1b single 10 mg fed,0 n
same,"TEAE Radiculopathy, participants",Part 1b single 10 mg fed,0 n
same,"TEAE Renal and urinary disorders, participants",Part 1b single 10 mg fed,0 n
same,"TEAE Vomiting, participants",Part 1b single 10 mg fed,1 n
same,"Any Grade ≥3 TEAE, participants",Part 1b single 40 mg fed,1 n
same,"Any TEAE, participants",Part 1b single 40 mg fed,6 n
same,"Any treatment-emergent AESI, participants",Part 1b single 40 mg fed,0 n
same,"Any treatment-emergent SAE, participants",Part 1b single 40 mg fed,1 n
same,"TEAE Alanine aminotransferase increased, participants",Part 1b single 40 mg fed,0 n
same,"TEAE Back pain, participants",Part 1b single 40 mg fed,2 n
same,"TEAE Cerebrospinal fluid leakage, participants",Part 1b single 40 mg fed,3 (50.0) n
same,"TEAE Coccydynia, participants",Part 1b single 40 mg fed,1 n
same,"TEAE Constipation, participants",Part 1b single 40 mg fed,1 n
same,"TEAE Dizziness, participants",Part 1b single 40 mg fed,1 n
same,"TEAE Gastrointestinal disorders, participants",Part 1b single 40 mg fed,2 n
same,"TEAE Headache, participants",Part 1b single 40 mg fed,4 n
same,"TEAE Investigations, participants",Part 1b single 40 mg fed,0 n
same,"TEAE Musculoskeletal and connective tissue disorders, participants",Part 1b single 40 mg fed,2 n
same,"TEAE Nausea, participants",Part 1b single 40 mg fed,1 n
same,"TEAE Nervous system disorders, participants",Part 1b single 40 mg fed,5 n
same,"TEAE Polyuria, participants",Part 1b single 40 mg fed,1 n
same,"TEAE Radiculopathy, participants",Part 1b single 40 mg fed,1 n
same,"TEAE Renal and urinary disorders, participants",Part 1b single 40 mg fed,1 n
same,"TEAE Vomiting, participants",Part 1b single 40 mg fed,1 n
same,"PCSAs (vital signs, ECG), relevance","Part 1b, all Compound 1 groups",not clinically relevant
same,"Any Grade ≥3 TEAE, participants",Part 2 10 mg QD 14 days,0 n
same,"Any TEAE, participants",Part 2 10 mg QD 14 days,4 n
same,"Any treatment-emergent AESI, participants",Part 2 10 mg QD 14 days,0 n
same,"Any treatment-emergent SAE, participants",Part 2 10 mg QD 14 days,0 n
same,"TEAE Nervous system disorders, participants","Part 2 10 mg QD, out of 8",2 participants
same,"Any Grade ≥3 TEAE, participants",Part 2 15 mg BID 14 days,0 n
same,"Any TEAE, participants",Part 2 15 mg BID 14 days,6 n
same,"Any treatment-emergent AESI, participants",Part 2 15 mg BID 14 days,1 n
same,"Any treatment-emergent SAE, participants",Part 2 15 mg BID 14 days,0 n
same,ALT increase (AESI),"Part 2 15 mg BID, one participant, Day 9",2.29 ULN
same,"ALT increase (AESI), highest","Part 2 15 mg BID, one participant, Day 15, 24 hours post last dosing",2.71 ULN
same,"TEAE Nervous system disorders, participants","Part 2 15 mg BID, out of 8",1 participants
same,"Any Grade ≥3 TEAE, participants",Part 2 20 mg BID 14 days,0 n
same,"Any TEAE, participants",Part 2 20 mg BID 14 days,4 n
same,"Any treatment-emergent AESI, participants",Part 2 20 mg BID 14 days,0 n
same,"Any treatment-emergent SAE, participants",Part 2 20 mg BID 14 days,0 n
same,"TEAE Nervous system disorders, participants","Part 2 20 mg BID, out of 8",2 participants
same,"Any Grade ≥3 TEAE, participants",Part 2 20 mg QD 14 days,0 n
same,"Any TEAE, participants",Part 2 20 mg QD 14 days,3 n
same,"Any treatment-emergent AESI, participants",Part 2 20 mg QD 14 days,0 n
same,"Any treatment-emergent SAE, participants",Part 2 20 mg QD 14 days,0 n
same,"TEAE Nervous system disorders, participants","Part 2 20 mg QD, out of 8",1 participants
same,SAE and severe TEAE (Grade ≥3),"Part 2, 14-day repeated doses",no serious adverse event (SAE) and no severe treatment-emergent adverse event
same,"PCSAs for vital signs and ECG parameters, relevance","Part 2, all groups",not clinically meaningful
same,"Safety and tolerability, overall","single dose up to 40 mg fasted and fed, up to 20 mg BID for 14 days",safe and well tolerated
